System: YFP-FRT cells
Assay: Persistence of anion transport by fluorescence microscopy in YFP-FRT cells
Assay type: cell-based, Fischer rat
Details: 10 μM, continuous perfusion
Description: the PBS bathing cells 10 minutes prior to PBS iodide addition, whereas UTP was added to cells with the PBS iodide solution. Fluorescence was measured for 14 seconds; 2 seconds before and 12 seconds after injection of 110 µl PBS iodide solution (137 mM Cl- replaced by I-) into each well (to obtain a final concentration of I- of 100 mM).
We expressed cell fluorescence values (F) relative to the fluorescence value immediately before I- injection (F0), excluding the initial decrease, which likely represents the quenching of extracellular YFP released from cells and signal reduction accompanying the increase in solution volume bathing cells. To quantify anion transport by test anionophores, we determined the initial slope of the fluorescence decay following I - addition by fitting first order exponential functions to the last 12 seconds of each fluorescence recording. […]
fluorescence microscopy as described previously.10 In brief, YFP-FRT cells were washed 3x with PBS before transfer to a perfusion chamber mounted on the stage of a Leica DM IRB microscope. […] Any anionophore not incorporated into YFP-FRT cell membranes was removed from the chamber by perfusion with PBS when fluorescence measurements commenced. […]
Fluorescence data from 5 – 9 cells per coverslip were analysed with 4 coverslips tested for each anionophore. […]

## CCOC(=O)[C@]12CC[C@@H](NC(=S)Nc3ccc([N+](=O)[O-])cc3)C[C@@H]1C[C@@H](NC(=S)Nc1ccc([N+](=O)[O-])cc1)CC2 [Compound 12]
  duration of anion transport after anionophore delivery: up to 2 h

Source: publication PMC6984391, “Anion carriers as potential treatments for cystic fibrosis: transport in cystic fibrosis cells, and additivity to channel-targeting drugs” (Chemical Science, 2019)
